Holding throughout (format): biochemical
Assay [1] has as its target T1, IAPP fibrils (Homo sapiens, UniProt P10997).
T1 construct: purchased Bachem Inc
T1 sequence (P10997 34-70 limits assumed): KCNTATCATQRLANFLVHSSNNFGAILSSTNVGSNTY
Briefly: Thioflavin T fluorometry - disruption of type 2 diabetes IAPP fibrils. To be noted: 3 days; for inhibition / % Inhibition IAPP (result ± S.D.): 25 μM pre-fibrillized IAPP, 37° C.; for inhibition: read-out: % Inhibition IAPP (result ± S.D.). An outline of the steps: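 Pre-fibrillized human IAPP (25 μM) incubated 3 days at 37 °C alone or with compound at IAPP:compound weight ratios of 1:1 to 1:0.001. Mixtures then mixed with Thioflavin T in phosphate buffer pH 6.8; fluorescence read at 485 nm (ex 444 nm) after blank subtraction.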

The target in the next assay is T2, Aβ 1-42 fibrils (Homo sapiens, UniProt P05067).
T2 construct: purchased Bachem Inc
Put plainly: Thioflavin T fluorometry - disruption of pre-formed Aβ 1-42 Alzheimer's fibrils. The following applies: 3 days; for inhibition / % Inhibition Aβ (result ± S.D.): 25 μM pre-fibrillized Aβ 1-42, 37° C.; for inhibition: read-out: % Inhibition Aβ (result ± S.D.). The gist of the method: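 Pre-fibrillized Aβ1-42 (25 µM) incubated 3 days at 37 °C alone or with compound at Aβ:compound weight ratios 1:1 to 1:0.001. Remaining fibrils quantified by Thioflavin T fluorescence (ex 444/em 485 nm) in phosphate buffer pH 6.8, blank-subtracted for buffer or compound alone.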

A further assay deals with T3, NAC fibrils (Homo sapiens, UniProt P37840).
T3 construct: NAC is a 35-amino acid fragment of α-synuclein; purchased Bachem Inc
Put plainly: Thioflavin T fluorometry - disruption of Parkinson's disease NAC fibrils. To be noted: 3 days; for inhibition / % Inhibition NAC (result ± S.D.): 25 μM pre-fibrillized NAC, 37° C.; for inhibition: read-out: % Inhibition NAC (result ± S.D.); for disruption/disassembly of pre-formed NAC fibrils (in words): all concentrations tested (ratios 1:1 to 1:0.001). An outline of the steps:
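Pre-fibrillized NAC (25 μM) co-incubated 3 days at 37° C with compound at NAC:compound weight ratios 1:1 to 1:0.001. Fibril content read by Thioflavin T fluorescence (phosphate buffer pH 6.8; ex 444/em 485 nm), blank-subtracted for buffer or compound alone.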

Assay [2] has as its target T1, IAPP fibrils. Briefly: Congo red binding assay with IAPP fibrils. The following applies: for % Inhibition IAPP (result ± S.D.), Congo red binding: 3-day incubation. An outline of the steps:
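Congo red staining of washed 0.2 μm filters measured the aggregated IAPP retained after a 3-day co-incubation with compound or EDTA. Weight ratios IAPP:compound were 1:1, 1:0.1, 1:0.01 or 1:0.001; loss of color relative to compound-free IAPP was scored.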

Where [3] appears, read: IAPP:test compound wt/wt ratio 1:0.001.
Setting [4] is: IAPP:test compound wt/wt ratio 1:0.01.
Where [5] appears, read: IAPP:test compound wt/wt ratio 1:0.1.
The mark [6] stands for this setting: IAPP:test compound wt/wt ratio 1:1.
Setting [7] is: Aβ:test compound wt/wt ratio 1:0.001.
Where [8] appears, read: Aβ:test compound wt/wt ratio 1:0.01.
[9] abbreviates: Aβ:test compound wt/wt ratio 1:0.1.
Setting [10] is: Aβ:test compound wt/wt ratio 1:1.
Setting [11] is: NAC:test compound wt/wt ratio 1:0.001.
The mark [12] stands for this setting: NAC:test compound wt/wt ratio 1:0.01.
Setting [13] is: NAC:test compound wt/wt ratio 1:0.1.
Where [14] appears, read: NAC:test compound wt/wt ratio 1:1.
[15] abbreviates: all concentrations tested (ratios 1:1 to 1:0.001).

Read-outs that look alike come from different tables or passages of the source.

One may read the inhibition as the share of the control response that was lost under treatment.

T2 sequence (P05067 672-713): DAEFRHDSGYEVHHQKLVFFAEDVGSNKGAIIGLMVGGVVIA

Take `O=C(N[C@@H]1CCCC[C@H]1NC(=O)c1ccc(O)c(O)c1)c1ccc(O)c(O)c1` (relative stereo) [Compound 26, N,N′-bis(3,4-dihydroxybenzoyl)-trans-1,2-diaminocyclohexane]: the inhibition on IAPP fibrils [1] (setting [3]) came out at 3.7 ± 4.67%; at IAPP fibrils [1] (setting [4]), 24.6 ± 6.77%; at IAPP fibrils [1] (setting [5]), 45.9 ± 17.7%; at IAPP fibrils [1] (setting [6]) it was 52.5 ± 2.44%; at Aβ 1-42 fibrils (setting [7]), 0%; at Aβ 1-42 fibrils (setting [8]) it was 0%. Further, the inhibition worked out at 11.7 ± 3.67% on Aβ 1-42 fibrils (setting [9]); 37.8 ± 5.5% on Aβ 1-42 fibrils (setting [10]); 0% at NAC fibrils (setting [11]); 56.8 ± 4.6% on NAC fibrils (setting [12]); 61.3 ± 6.52% on NAC fibrils (setting [13]); 70.4 ± 3.22% on NAC fibrils (setting [14]). In addition, the “% Inhibition IAPP (result ± S.D.), Congo red binding” value was 10.8 ± 2.63% on IAPP fibrils [2] (setting [3]), 5.3 ± 6.14% on IAPP fibrils [2] (setting [4]), 7.5 ± 2.83% at IAPP fibrils [2] (setting [5]) and 0.0 ± 1.21% on IAPP fibrils [2] (setting [6]).
As to `O=C(O)CN(CCN(CC(=O)O)CC(=O)O)CC(=O)O` [EDTA, reference compound], the “% Inhibition IAPP (result ± S.D.)” value stood at 4.2 ± 1.05% at IAPP fibrils [1] (setting [3]), 0.0 ± 5.23% on IAPP fibrils [1] (setting [4]), 0.1 ± 2.59% on IAPP fibrils [1] (setting [5]) and 4.4 ± 9.23% on IAPP fibrils [1] (setting [6]). Besides, on IAPP fibrils [1] (setting [15]), the “disruption/disassembly of pre-formed IAPP fibrils (in words)” value was “no significant inhibition”. Also, the “% Inhibition Aβ (result ± S.D.)” value on Aβ 1-42 fibrils (setting [7]) was 0.0 ± 3.01%; on Aβ 1-42 fibrils (setting [8]), 0.0 ± 4.88%; at Aβ 1-42 fibrils (setting [9]) it was 0.0 ± 7.12%; on Aβ 1-42 fibrils (setting [10]), 11.3 ± 9.67%. Moreover, the “disruption/disassembly of preformed Aβ 1-42 fibrils (in words)” value at Aβ 1-42 fibrils (setting [15]) was “no significant inhibition”. For the same molecule, the “% Inhibition NAC (result ± S.D.)” value on NAC fibrils (setting [11]) is listed as 0.0 ± 11.6%; at NAC fibrils (setting [12]) it was 0.0 ± 10.87%; at NAC fibrils (setting [13]), 0.0 ± 5.87%; at NAC fibrils (setting [14]), 20.0 ± 11.8%. Further, the “disruption/disassembly of pre-formed NAC fibrils (in words)” value on NAC fibrils is reported as “no significant inhibition”. Moreover, the “% Inhibition IAPP (result ± S.D.), Congo red binding” value is 6.6 ± 2.27% at IAPP fibrils [2] (setting [3]), 3.6 ± 2.83% at IAPP fibrils [2] (setting [4]), 0.0 ± 1.91% at IAPP fibrils [2] (setting [5]) and 0.0 ± 3.69% at IAPP fibrils [2] (setting [6]). Besides, the “inhibition of IAPP fibril binding to Congo red (in words)” value at IAPP fibrils [2] (all concentrations tested (ratios 1:1 to 1:0.001), 3 days) is recorded as “no significant inhibition”.
Consider `O=C(c1ccc(O)c(O)c1)C(O)c1ccc(O)c(O)c1` (stereo not shown) [Compound 1, 3,4,3′,4′-tetrahydroxybenzoin], for which the inhibition at IAPP fibrils [1] (setting [3]) stood at 6.4 ± 4.4%; at IAPP fibrils [1] (setting [4]), 57.3 ± 0.16%; on IAPP fibrils [1] (setting [5]), 93 ± 1.27%; on IAPP fibrils [1] (setting [6]), 99 ± 0.11%; at Aβ 1-42 fibrils (setting [7]), 0%; at Aβ 1-42 fibrils (setting [8]), 19.2 ± 4.31%. For the same molecule, the inhibition at Aβ 1-42 fibrils (setting [9]) was determined as 64.8 ± 1.98%; on Aβ 1-42 fibrils (setting [10]), 97.3 ± 0.23%; at NAC fibrils (setting [11]) it was 0%; on NAC fibrils (setting [12]), 68.2 ± 2.55%; at NAC fibrils (setting [13]), 99.5 ± 0.53%; on NAC fibrils (setting [14]), 100 ± 1%. Moreover, at NAC fibrils, the “disruption/disassembly of pre-formed NAC fibrils (in words)” value was “dose-dependent disruption/disassembly”. Further, the “% Inhibition IAPP (result ± S.D.), Congo red binding” value is on record as 18.6 ± 4.05% on IAPP fibrils [2] (setting [4]), 10.6 ± 3.40% at IAPP fibrils [2] (setting [5]) and 40.7 ± 2.49% on IAPP fibrils [2] (setting [6]).
For the molecule `O=C(c1ccc(O)c(O)c1)N1CCN(C(=O)c2ccc(O)c(O)c2)CC1` [Compound 23, 1,4-bis(3,4-dihydroxybenzoyl)piperazine], the inhibition at IAPP fibrils [1] (setting [3]) turned out to be 27.3 ± 45.4%; at IAPP fibrils [1] (setting [4]), 44.3 ± 32.5%; on IAPP fibrils [1] (setting [5]), 67.2 ± 18.4%; on IAPP fibrils [1] (setting [6]), 85.2 ± 0.55%; on Aβ 1-42 fibrils (setting [7]), 0%; on Aβ 1-42 fibrils (setting [8]), 16.5 ± 4.02%. For the same molecule, the inhibition on Aβ 1-42 fibrils (setting [9]) is 26.2 ± 4.37%; on Aβ 1-42 fibrils (setting [10]) it was 46.7 ± 4.62%; at NAC fibrils (setting [11]), 0%; at NAC fibrils (setting [12]) it was 35.6 ± 9.73%; on NAC fibrils (setting [14]), 58 ± 8.43%. Further, the “% Inhibition IAPP (result ± S.D.), Congo red binding” value on IAPP fibrils [2] (setting [3]) came out at 5.1 ± 2.45%; on IAPP fibrils [2] (setting [4]), 9.3 ± 1.40%; on IAPP fibrils [2] (setting [5]), 4.5 ± 4.12%; on IAPP fibrils [2] (setting [6]), 5.5 ± 2.33%.

These data come from patent publication US20070276034A1, “Compounds, compositions and methods for the treatment of synucleinopathies” (priority 2002, published 2007).
